{"source": "paper PMC7894522", "about": "“Structure Based Design of Bicyclic Peptide Inhibitors of RbAp48” (Angewandte Chemie (International Ed. in English), 2020)", "key": {"[1]": {"experiment": "Peptide stability in MDA-MB-231 whole cell lysate", "type": "in vitro ADME", "conditions": "human, 37°C, HPLC, duplicate", "experimental": "To investigate whether the cyclization strategy influences the stability of the peptides we incubated 3, 8 and 33 in MDA‐MB‐231 cell lysate. […]\nFluorescence polarization assay […]\nIsothermal Titration Calorimetry […]\nPeptide stability was tested in whole cell lysate prepared from MDA-MB-231 cells using the freeze-thaw method. Peptides were dissolved in lysate (normalized to 5mg/ml protein using PBS) at 600 µM and incubated at 37°C. Samples were taken at different time points and mixed with an equal amount of MeOH containing 0.05 mg/ml ethylparaben as an i nternal standard. The samples were mixed and kept on ice for 15 minutes before centrifugation at 14000 rpm at 4 °C for 10 min. The supernatant was carefully removed and analyzed by HPLC. Peptide peaks were integrated and surface areas compared […]\nMeasurements were performed in duplicate."}, "[2]": {"tested_on": "U2OS cells", "experiment": "Morphological cell painting assay", "type": "cell-based", "conditions": "U2OS cells, 20 h, 579 parameters, fraction of significantly changed parameters vs DMSO; 10, 3 or 1 µM", "excerpt": "Encouraged by the promising results from the pulldown experiment, and in order to get insight into bioactivity and possible mode of action, we analyzed peptide 33 in a morphological cell painting assay. The cell painting assay is a target agnostic assay which determines a cells morphological profile after treatment with a compound of interest and compares it to the profiles of a set of reference compounds. ^[22] By identifying reference compounds with a similar profile a hypothesis of the compounds mode of action can be generated based on their annotated targets. ^[23] U2OS cells were treated with our compound and 579 parameters were analyzed. […] We therefore synthesized a variant modified with an N‐terminal TAT sequence to enhance its permeability (compound 49, see Table 1 and Supplemental Figure 4). ^[24] […] Applying compound 49 to the cell painting assay led to an induction of 5.9 % and the corresponding profile was compared to the set of 3000 reference compounds. […] To validate this hypothesis, we exposed U2OS cells to compound 49 and evaluated the levels of p53 by Western blot. […] The exact mechanism by which the compounds elevate levels of p53 requires further investigation. However, it has previously been shown that the NuRD complex, of which RbAp48 is a core component, is able to deacetylate p53 and thereby modulate its stability. ^[26] The effect is mediated by the MTA family of proteins from which the compounds described here are derived. […]\nThe described assay follows closely the method described by Bray et al. Initially, 5 µl U2OS medium were added to each well of a 384 -well plate (PerkinElmer CellCarrier -384 Ultra). Subsequently, U2OS cell were seeded with a density of 1600 cells per well in 20 µl medium. The plate was incubated for 10 min at the ambient temperatu re, followed by an a dditional 4 h incubation (37 °C, 5 % CO2). Compound treatment was performed with the Echo 520 acoustic dispenser (Labcyte) at final concentrations of 10 µM, 3 µM or 1 µM. Incubation with compound was performed for 20 h (37 °C, 5 % CO2). Subsequently, mitoc hondria were stained with Mito Tracker Deep Red (Thermo Fisher Scientific, Cat. No. M22426). The Mito Tracker Deep Red stock solution (1 mM) was diluted to a final concentration of 100 nM in prewarmed medium. The medium was removed fr om the plate leaving 1 0 µl residual volume and 25 µl of the Mito Tracker solution were added to each well. 22 The plate was incubated for 30 min in darkness (37 °C, 5 % CO2). To fix the cells 7 µl of 18.5 % formaldehyde in PBS were added, resulting in a fi nal formaldehyde conce ntration of 3.7 %. Subsequently, the plate was incubated for another 20 min in darkness (RT) and washed three times with 70 µl of PBS. (Biotek Washer Elx405). Cells were permeabilized by addition of 25 µl 0.1 % Triton X -100 to each well, followed by 15 min incubation (RT) in darkness. The cells were washed three times with PBS leaving a final volume of 10 µl. To each well 25 µl of a staining solution were added, which contains 1 % BSA, 5 µl/mL Phalloidin (Thermo Fisher Scientific, A123 81), 25 µg/ml Concanav alin A (Thermo Fisher Scientific, Cat. […]\nconjugate (Thermo Fisher Scientific, Cat. No. W11262) and […] SYTO 14 solution (Thermo Fisher Scientific, Cat. No. S7576). The plate is incubated for 30 min (RT) in darkness and washed three times with 70 µl PBS. After the final washing step the PBS was not aspirated. The plates were sealed and centrifuged for 1 min at 500 rpm.\nThe plates were prepare d in triplicates with shifted layouts to reduce plate effects and imaged using a Micro XL High-Content Screening System (Molecular Devices) in 5 channels (DAPI: Ex350 -400/ Em410- […]\nThe generated images were processed with the CellProfiler package (https://cellprofiler.org/, version 3.0.0) on a computing cluster of the Max Planck Society to extract 1716 cell features (parameters) per microscope site. The data was then further aggregated as medians per well (9 sites -> 1 well), then […]"}}, "note": "Starred links: 1 amine or outer side, 2 acyl side, 3 side chain; linkers in the order of their positions; H or OH if unused. Positions of bridges follow the written chain, without caps; N, C: chain ends. Residues, ends and D or L forms follow the SMILES beside them. TBMB = c1c(C[*:1])cc(C[*:3])cc1C[*:2]"}
{"smiles": "CC(=O)N[C@H]1CSCc2cc3cc(c2)CSC[C@@H](C(=O)N[C@@H](C)C(N)=O)NC(=O)[C@@H]2CCCN2C(=O)[C@H](CCCCN)NC(=O)[C@H](Cc2ccc(O)cc2)NC(=O)[C@@H]2CCCN2C(=O)[C@H](CCCNC(=N)N)NC(=O)[C@H](CCCNC(=N)N)NC(=O)[C@H](C)NC(=O)[C@H](CSC3)NC(=O)[C@H](CCCNC(=N)N)NC(=O)[C@H](CCCCN)NC(=O)[C@H]([C@@H](C)O)NC1=O", "note": "[Peptide 33] (Ac-CTKRCARRPYKPCA-NH2; linker 1-5-13 via TBMB)", "values": [{"measurement": "half-life at 600 µM", "setting": "[1]; MDA-MB-231 whole cell lysate (freeze-thaw), 5 mg/ml protein in PBS, peptide 600 µM, read-out: t 1/2 (half-life)", "result": 94.3, "unit": "min"}, {"measurement": "remaining at 1 h, 600 µM", "setting": "[1]; T 60 min, MDA-MB-231 whole cell lysate 5 mg/ml protein, 600 µM, read-out: % left", "result": 57.8, "unit": "%"}, {"measurement": "remaining at 2 h, 600 µM", "setting": "[1]; T 120 min, MDA-MB-231 whole cell lysate 5 mg/ml protein, 600 µM, read-out: % left", "result": 41.4, "unit": "%"}, {"measurement": "remaining at 4 h, 600 µM", "setting": "[1]; T 240 min, MDA-MB-231 whole cell lysate 5 mg/ml protein, 600 µM, read-out: % left", "result": 0, "unit": "%"}, {"measurement": "induction", "setting": "[2]", "result": "no induction"}]}
